Results taken from ChEMBL document CHEMBL1201862, “PubChem BioAssay data set” (2004).
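In this assay, cells in 96-well plates receive the compound at five concentrations for 48 hours. Endpoints are linearly interpolated between the surrounding concentrations. Abbreviation: GI50, concentration required for 50% inhibition of growth.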 The source made the active and inactive calls. Cut-off read from the data, not from the text of the source: active = GI50 up to about 1.1 µM and inactive = higher. Where a SMILES comes first, the peptide text is derived from it. The star is where a group is joined. Cbz = O=C(OCc1ccccc1)*; Bn = c1ccc(C*)cc1

Legend:
Assay in all cases: NCI anticancer screen, dose series, 48 h
786-0 = system: 786-0
COLO 205 = system: COLO 205
DU-145 = system: DU-145
HCT-15 = system: HCT-15
HOP-92 = system: HOP-92
HT-29 = system: HT-29
K562 = system: K562
LOX IMVI = system: LOX IMVI
M14 = system: M14
MCF7 = system: MCF7
MOLT-4 = system: MOLT-4
NCI-H460 = system: NCI-H460
OVCAR-5 = system: OVCAR-5
OVCAR-8 = system: OVCAR-8
SF-268 = system: SF-268
SF-295 = system: SF-295
SK-MEL-28 = system: SK-MEL-28
SK-OV-3 = system: SK-OV-3
SW-620 = system: SW-620
SNB-75 = system: SNB-75

| Compound | GI50 (786-0) | GI50 (COLO 205) | GI50 (DU-145) | GI50 (HCT-15) | GI50 (HOP-92) | GI50 (HT-29) | GI50 (K562) | GI50 (LOX IMVI) | GI50 (M14) | GI50 (MCF7) | GI50 (MOLT-4) | GI50 (NCI-H460) | GI50 (OVCAR-5) | GI50 (OVCAR-8) | GI50 (SF-268) | GI50 (SF-295) | GI50 (SK-MEL-28) | GI50 (SK-OV-3) | GI50 (SW-620) | GI50 (SNB-75) |
| --- | --- | --- | --- | --- | --- | --- | --- | --- | --- | --- | --- | --- | --- | --- | --- | --- | --- | --- | --- | --- |
| Nc1c2c(=O)[nH]c(=O)c2c(N)c2c(=O)c3ccccc3c(=O)c12 | 2.69 µM (inactive) | 0.687 µM (active) | 1.56 µM (inactive) | 1.36 µM | 12.9 µM (inactive) | 0.977 µM (active) | 3.02 µM (inactive) | 1.23 µM (inactive) | 0.243 µM (active) | 1.16 µM (inactive) | 3.68 µM (inactive) | 0.869 µM (active) | 1.82 µM (inactive) | 1.82 µM (inactive) | 2.65 µM (inactive) | 1.59 µM (inactive) | 2.03 µM (inactive) | 7.23 µM (inactive) | 1.69 µM (inactive) | – |
| O=CC1C(Cl)=Nc2nc3ccccc3n2C1c1ccc([N+](=O)[O-])cc1 (stereo not drawn) | 4.3 µM (inactive) | 3.14 µM (inactive) | 4.74 µM (inactive) | 2.93 µM | 5.45 µM (inactive) | – | 1.8 µM (inactive) | 2.18 µM (inactive) | 7.93 µM (inactive) | 3.97 µM (inactive) | 1.71 µM (inactive) | 31.1 µM (inactive) | 21.1 µM (inactive) | 3.95 µM (inactive) | 6.84 µM (inactive) | 23.2 µM (inactive) | 2.51 µM (inactive) | – | 4.8 µM (inactive) | 1.77 µM (inactive) |
| CC(=O)N1OC(C)CC1Nc1ccc(Br)cc1 (stereo not drawn) | > 100 µM (inactive) | – | 0.493 µM (active) | > 100 µM | > 100 µM (inactive) | 75.9 µM (inactive) | 0.345 µM (active) | – | 1.6 µM (inactive) | 21.5 µM (inactive) | 0.971 µM (active) | 8.04 µM (inactive) | 96.2 µM (inactive) | > 100 µM (inactive) | > 100 µM (inactive) | > 100 µM (inactive) | – | > 100 µM (inactive) | 0.76 µM (active) | – |
| N/C(S)=N/N=C/c1ccc(O)cn1 | – | – | 2.96 µM (inactive) | 9.08 µM | 4.68 µM (inactive) | 22.3 µM (inactive) | 4.99 µM (inactive) | 5.13 µM (inactive) | 5.11 µM (inactive) | 3.18 µM (inactive) | – | 18.5 µM (inactive) | 45 µM (inactive) | 3.51 µM (inactive) | 4.3 µM (inactive) | 20.4 µM (inactive) | 30.1 µM (inactive) | – | 15.4 µM (inactive) | 9.06 µM (inactive) |
| CCOC(=O)/C(=N/Nc1ccccc1)N1C(=S)N(C)N=C(C)C=C1S | – | > 100 µM (inactive) | > 100 µM (inactive) | > 100 µM | 47.8 µM (inactive) | > 100 µM (inactive) | > 100 µM (inactive) | – | > 100 µM (inactive) | > 100 µM (inactive) | > 100 µM (inactive) | > 100 µM (inactive) | > 100 µM (inactive) | > 100 µM (inactive) | 6.82 µM (inactive) | 28.4 µM (inactive) | > 100 µM (inactive) | > 100 µM (inactive) | > 100 µM (inactive) | 10 µM (inactive) |
| COc1cccc(C2SC(=N)Nc3c2c(C)nn3C(=O)Cc2ccccc2)c1 (stereo not drawn) | > 100 µM (inactive) | > 100 µM (inactive) | > 100 µM (inactive) | > 100 µM | – | > 100 µM (inactive) | > 100 µM (inactive) | > 100 µM (inactive) | > 100 µM (inactive) | 39.8 µM (inactive) | > 100 µM (inactive) | > 100 µM (inactive) | – | > 100 µM (inactive) | > 100 µM (inactive) | > 100 µM (inactive) | > 100 µM (inactive) | > 100 µM (inactive) | > 100 µM (inactive) | 51.5 µM (inactive) |
| COCCOc1nc(-c2ccccc2)nc2ccccc12 | – | 32.6 µM (inactive) | 54.7 µM (inactive) | 19.2 µM | 27.6 µM (inactive) | 29.6 µM (inactive) | 35.5 µM (inactive) | 47.8 µM (inactive) | 27.7 µM (inactive) | 37.2 µM (inactive) | 20.6 µM (inactive) | 19.3 µM (inactive) | > 100 µM (inactive) | 42 µM (inactive) | 27.7 µM (inactive) | 43.1 µM (inactive) | 53.5 µM (inactive) | 46.7 µM (inactive) | 34 µM (inactive) | 60.8 µM (inactive) |
| COC(=O)C(Cc1ccc(O)cc1)NC(=O)C(COCc1ccccc1)NC(=O)OCc1ccccc1 (stereo not drawn) (Cbz-Ser(Bn)-Tyr-OMe; configuration not given here) | – | 17.1 µM (inactive) | 17.3 µM (inactive) | 18.8 µM | 25.5 µM (inactive) | 15.1 µM (inactive) | > 100 µM (inactive) | 22.2 µM (inactive) | 19.4 µM (inactive) | 19.3 µM (inactive) | > 100 µM (inactive) | 4.13 µM (inactive) | 19.8 µM (inactive) | 17.8 µM (inactive) | 17.5 µM (inactive) | 16.5 µM (inactive) | 20.9 µM (inactive) | 17.4 µM (inactive) | 18.8 µM (inactive) | 14.9 µM (inactive) |
